Reference: US6815189B1, “Gene from acremonium chrysogenum encoding a protein with cephalosporin C acetylhydrolase activity and methods of use of such gene” (Antibiotics, S.A.U., priority 1999, dated 2004)
Like-named read-outs stand apart in the source and are kept apart here.

Key:
CPC-AH B [1] = target: T1, CPC-AH B (Hapsidospora chrysogena, UniProt A0A086SV17); test: In-vitro deacetylation by enzymatic extracts from E. coli JM109(DE3)/pT7B2.2 (processed CPC-AH B); type: biochemical, Acremonium chrysogenum; conditions: substrate 20 mM, 60 minutes at 37° C.
extracellular CPC-AH = conditions: cited from earlier work
CPC-AH B [2] = target: T1, CPC-AH B; test: Effect of metals and inhibitors on CPC-AH B activity (HPLC test of DAC formation from CPC); type: biochemical, Acremonium chrysogenum
[3] = final concentration of the ions 1 mM
[4] = metals 1 mM, pre-incubated 15 minutes at 4° C., NONE = 100

T1 sequence (A0A086SV17 107-383): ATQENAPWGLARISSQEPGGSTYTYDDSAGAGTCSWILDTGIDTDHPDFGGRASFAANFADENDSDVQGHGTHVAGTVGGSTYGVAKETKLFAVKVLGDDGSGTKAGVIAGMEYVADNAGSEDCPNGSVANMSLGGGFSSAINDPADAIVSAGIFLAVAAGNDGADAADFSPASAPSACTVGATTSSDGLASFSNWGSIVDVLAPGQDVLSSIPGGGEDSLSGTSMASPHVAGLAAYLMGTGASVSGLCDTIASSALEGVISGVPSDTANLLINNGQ

CC(=O)OCC1=C(C(=O)O)N2C(=O)[C@@H](N)[C@H]2SC1 [7-ACA, 7-aminocephalosporanic acid]
Deacetylation of substrate (CPC-AH B [1]): detected appearance of the corresponding deacetylated derivatives

CC(=O)OCC1=C(C(=O)O)N2C(=O)[C@@H](NC(=O)CCC[C@@H](N)C(=O)O)[C@H]2SC1 [CPC, cephalosporin C]
Deacetylation of substrate (CPC-AH B [1]): detected appearance of the corresponding deacetylated derivatives
Km (extracellular CPC-AH): 20 mM

O=C(O)CN(CCN(CC(=O)O)CC(=O)O)CC(=O)O [EDTA]
CPC-AH activity (%) (CPC-AH B [2]; inhibitor 0.1 mM, NONE = 100): 91%
CPC-AH activity (%) (CPC-AH B [2]; inhibitor 1 mM, NONE = 100): 87%
CPC-AH activity (%) (CPC-AH B [2]; inhibitor 10 mM, NONE = 100): 86%

O=S(=O)([O-])[O-].[Fe+2] [FeSO4]
Effect of metal ion on CPC-AH B activity (CPC-AH B [2]; [3]): inhibit activity to a greater or lesser extent
CPC-AH activity (%) (CPC-AH B [2]; [4]): 49%

O=C([O-])[O-].[K+].[K+] [K2CO3]
CPC-AH activity (%) (CPC-AH B [2]; [4]): 77%

O=S(=O)([O-])[O-].[Mg+2] [MgSO4]
Effect of metal ion on CPC-AH B activity (CPC-AH B [2]; [3]): stimulating effect
CPC-AH activity (%) (CPC-AH B [2]; [4]): 141%

O=S(=O)([O-])[O-].[Mn+2] [MnSO4]
Effect of metal ion on CPC-AH B activity (CPC-AH B [2]; [3]): stimulating effect
CPC-AH activity (%) (CPC-AH B [2]; [4]): 140%

[Cl-].[Na+] [NaCl]
CPC-AH activity (%) (CPC-AH B [2]): 94%

O=S(=O)(F)Cc1ccccc1 [PMSF, phenylmethylsulphonyl fluoride]
Effect of inhibitor on CPC-AH B activity (CPC-AH B [2]): strong inhibitory effect

O=S(=O)([O-])[O-].[Zn+2] [ZnSO4]
Effect of metal ion on CPC-AH B activity (CPC-AH B [2]; [3]): inhibit activity to a greater or lesser extent
CPC-AH activity (%) (CPC-AH B [2]; [4]): 60%

AgNO3
CPC-AH activity (%) (CPC-AH B [2]): 60%
Effect of metal ion on CPC-AH B activity (CPC-AH B [2]): inhibit activity to a greater or lesser extent

CaCl2
CPC-AH activity (%) (CPC-AH B [2]): 147%
Effect of metal ion on CPC-AH B activity (CPC-AH B [2]): stimulating effect

CoSO4
CPC-AH activity (%) (CPC-AH B [2]): 80%

CuSO4
CPC-AH activity (%) (CPC-AH B [2]): 64%
Effect of metal ion on CPC-AH B activity (CPC-AH B [2]): inhibit activity to a greater or lesser extent
